Experimental data taken from patent US11098039B2, “Benzodiazepine product with activity on the central nervous and vascular systems” (UNIVERSIDAD DE LA HABANA, priority 2016, dated 2021).
“Also recorded” adds a separate entry of the source.

Legend:
male Wistar rats [1] = assay: Cylinder test after unilateral 6-OHDA lesion of the substantia nigra pars compacta; type: in vivo; conditions: 6-OHDA damage, after 7 days of treatment
Description: (§1) Male adult Wistar rats were used, weighing between 200 and 250 grams at the start of the experiment, coming from the National Laboratory Animal Production Center (CENPALAB), Havana, Cuba. The animals were kept at the Center for the Research and Development of Medicines (CIDEM) in plastic translucent boxes at an average temperature of 23° C. (22±2° C.), with food and water supplies ad libitum and 12-hour periods of light and dark.
JM-20 was administered in 3 different doses: 10, 20 and 40 mg/Kg, 24 hours after inducing damage and on a daily basis for 7 days. The compound was prepared in carboxymethylcellulose (CMC) at 0.05%, intragastrically with a cannula. There were 5 experimentation groups: Group I (vehicle/saline with ascorbic acid, n=6), Group II (animals affected with 6-OHDA, n=8), Group III (animals affected with 6-OHDA and co-treated with 10 mg/Kg JM-20, n=8), Group IV (animals affected with 6-OHDA and co-treated with 20 mg/Kg JM-20, n=8) and Group V (animals affected with 6-OHDA and co-treated with 40 mg/Kg JM-20 n=8). All behavioral studies were run at 7 days.
For the purpose of proceeding to unilateral dopaminergic denervation of the striate body (right hemisphere) the rats were anesthetized with Chloral Hydrate [0.4 g/kg weight, i.p., Merck (Darmstadt, Germany)] and placed into a frame designed for stereotactic surgery (Stoelting Instruments, USA.), where they were injected in the right substantia nigra pars compacta with saline solution neurotoxin 6-OHDA-HBr (8 μg/3 μL, also containing 0.2 mg/ml of ascorbic acid as an antioxidant) (Pavón Fuentes, Nancy (2007) Efecto de la inactivación de los receptores dopaminérgicos D2 y de la manipulación del núcleo subtalámico sobre la conducta motora en modelos de hemiparkinsonismo en roedores. Doctor en Ciencias de una Especialidad, Universidad de Ciencias Médicas de La Habana). Coordinates were calculated taking Bregma as a point of reference in accordance with the Paxinos and Watson Atlas [Paxinos, G. and Watson, C., The rat brain in stereotaxic coordenates. 2nd the Academic Press. New York, 1986], referred to in Table 1. […]

male Wistar rats [2] = assay: Exploratory Activity Test (vertical exploration) after unilateral 6-OHDA lesion; type: in vivo; conditions: 6-OHDA damage, after 7 days of treatment, statistically different at 40 mg/Kg versus untreated injured animals
Description: as §1
JM-20 was administered in 3 different doses: 10, 20 and 40 mg/Kg, 24 hours after inducing damage and on a daily basis for 7 days. The compound was prepared in carboxymethylcellulose (CMC) at 0.05%, intragastrically with a cannula. […]
In order to assess the vertical exploratory activity of animals we used the Exploratory Activity Test; the animal is placed in a clear Plexiglas cubicle, 41×41×33 (h) cm, (UGO BASILE, MultipleActivityCage Cat. No. 47420. Data output is managed by 52050-04 Data Acquisition Software Package (Windows® based). The cubicle is supported on a robust base made of black Plexiglas that has 4 vertical steel bars with steel grooves so that the horizontal/vertical detection systems are correctly affixed. The sensors are IR light emission systems capable of registering animal movements by shapes, or rather vertical exploration. Data is monitored on a computer. […]

rats = assay: 5% formalin test (tonic pain), Phase II; type: in vivo; conditions: Phase II (15-45 min), flumazenil pre-treatment study
Description: We studied the effect of JM-20 (10, 20, 40 mg/Kg, p.o) on behaviors related to pain in a tonic pain model (5% formalin test) in rats. (Dubuisson D, Dennis S G. The formalin test: a quantitative study of the analgesic effects of morphine, meperidine and brain-stem stimulation in rats and cats. Pain 1977; 4:161-174).
Each column represents the reaction time of 6-10 animals per group as the mean±EEM, * P<0.05, ***P<0.001 represents the statistical differences between treated and control groups (only vehicle), ****P<0.05 represents statistical differences between groups treated with diazepam in the presence or absence of flumazenil, 1p<0.05 represents statistical differences between groups treated with JM-20 in the presence or absence of flumazenyl.

CCI rats = assay: Histology of sciatic nerve (Wallerian degeneration) in chronic constriction injury (CCI) model; type: in vivo; conditions: JM-20 20 mg/Kg p.o., repeated doses for 7 days starting Day 7 post-CCI, 14 days after surgery, H/E and luxol fast blue
Description: We studied the effect of JM-20 on the chronic constriction of the sciatic nerve model (CCI), an NP model (Bennett M I, Rayment C, Hjermstad M, Aass N, Caraceni A, Kaasa S. Prevalence and aetiology of neuropathic pain in cancer patients: A systematic review. Pain 2012; 153:359-365) Results are presented in FIG. 19-23.
A, B and C show the longitudinal section of the sciatic nerve 5 mm distal to the lesion on CCI Sham rats, CCI treated with JM-20 and treated with vehicle respectively (H/E coloration). We can observe the increase in cellularity in CCI animals relatively compared with sham operated animals as the result of the proliferation of Schawann cells and the infiltration of macrophages and the loss of an orderly alignment of axons associated to their myelin sheathes as compared to the sham-CCI. The arrow indicates one of the many digestion chambers of Schawann cells containing a myelin ovoid (reddish oval mass). D, E, F show sections from the same animals but they are colored by the luxol fast blue (LFB) technique, a specific technique for myelin tincture.

OF-1 mice = assay: Memory loss induced by beta amyloid 25-35 peptide oligomers (in vivo); conditions: JM-20 administered 7 days after beta amyloid administration; 10 and 30 mg/kg orally for 10 days; Aβ 100 pmol i.c.v.
Description: For the different studies JM-20 was suspended in carboxymethyl cellulose (CMC) 0.05% and administered orally. Scopolamine bromide was dissolved in the 0.9% saline solution and administered intraperitoneally (1 mg/kg, 4 mL/Kg of weight). Aluminum chloride was dissolved in common drinking water for the experimental subjects and administered orally in a 500 mg/Kg peso dose, in chronic form for one month and while behavioral studies were conducted. Beta amyloid peptides (25-35) were oligomerized and made soluble according to the manufacturer's norms and administered via intracerebroventricular means at 100 pmols in 5 uL, into the right cerebral hemisphere.
In vivo experiments corresponding to the scopolamine and aluminum model used Wistar rats (males, 230-260 g), while in vivo experiments corresponding to the beta amyloid model used OF-1 mice (males, 25-30 g). All the animals came from the National Laboratory Animal Production Center (CENPALAB, Mayabeque, Cuba) and after their arrival they underwent adaptation to laboratory conditions for 7 days. […]
Subsequently we conducted in vivo studies on OF-1 mice. We assessed the effect of JM-20 on memory loss induced by beta amyloid oligomers administered 7 days after the intracerebroventricular administration of Aβ (100 pmols) during 10 days, orally in 10 and 30 mg/kg weight doses. […]

SMILES: CCOC(=O)C1=C(C)NC2=C(C=Nc3ccccc3N2)C1c1ccccc1[N+](=O)[O-] (stereo not shown) [JM-20, 3-etoxicarbonil-2-methyl-4-(2-nitrofeenil)-4,11-dihydro-1H-pirido[2,3-b][1,5] benzodiacepine]
- use of the paw contralateral to the damage (male Wistar rats [1]; JM-20 40 and 20 mg/Kg): increased use of the paw contralateral to the damage; also recorded: increased use of contralateral leg
- use of the ipsilateral paw (male Wistar rats [1]; both doses of JM-20 (40 and 20 mg/Kg), normal values): ~50%
- % of asymmetry (cylinder test), motor damage (male Wistar rats [1]; versus injured animals without treatment): diminished motor damage; also recorded: decrease in motor damage
- vertical exploration (male Wistar rats [2]): increased their vertical exploration
- effect on Phase II of the 5% formalin test (rats): antihypernociceptive effect
- histological changes induced by CCI (Wallerian degeneration): nerve fiber disorganization, cell number, myelin sheath degradation (CCI rats): reduced disorganization of the nerve fibers induced by CCI; also recorded: Reduction in CCI-induced nerve fiber disruption and cell count increase and myelin sheath degradation
- memory loss induced by beta amyloid 25-35 peptide oligomers (OF-1 mice): reverts memory loss
